Usually Ki stands for the equilibrium dissociation constant of an inhibitor or competing ligand from its target. Read a high Ki as lower affinity.

Molecules are shown by their SMILES.

The results in this text go back to ChEMBL document CHEMBL1130055, “Discovery of a novel class of selective non-peptide antagonists for the human neurokinin-3 receptor. 1. Identification of the 4-quinolinecarboxamide framework” (J Med Chem, 1997).

The target of this experiment is T1, Substance-K receptor (Homo sapiens, UniProt P21452).
T1 sequence (P21452 whole entry): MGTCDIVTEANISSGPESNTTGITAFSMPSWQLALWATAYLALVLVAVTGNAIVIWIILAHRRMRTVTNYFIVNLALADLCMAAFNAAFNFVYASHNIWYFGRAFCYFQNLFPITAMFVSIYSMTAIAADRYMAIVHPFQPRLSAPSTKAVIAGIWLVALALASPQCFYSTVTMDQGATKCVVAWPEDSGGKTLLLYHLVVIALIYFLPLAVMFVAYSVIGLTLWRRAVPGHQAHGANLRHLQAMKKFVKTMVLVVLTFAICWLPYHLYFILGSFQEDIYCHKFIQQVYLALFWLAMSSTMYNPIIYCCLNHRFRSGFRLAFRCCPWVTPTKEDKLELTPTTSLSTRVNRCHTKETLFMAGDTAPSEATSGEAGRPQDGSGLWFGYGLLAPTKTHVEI
Nature of the experiment: Inhibition of [125I]neurokinin A (NKA) binding in human Tachykinin receptor 2 of chinese hamster ovary (hNK-2-CHO) cell membranes.

With `COC(=O)[C@@H](NC(=O)c1cc(-c2ccccc2)nc2ccccc12)c1ccccc1`, the inhibition constant (Ki) was 8.33 µM. This lies in the single-digit micromolar range.

On to `COC(=O)[C@H](NC(=O)c1cc(-c2ccccc2)nc2ccccc12)c1ccccc1`, for which the affinity, expressed as Ki, was 1.22 µM. Compared with the last molecule, the Ki is about 6.8-fold lower.
